This is an account of results in ChEMBL document CHEMBL1201862, “PubChem BioAssay data set” (2004).

One may read the AC50 as the concentration giving half of the maximal activity seen. A word on the IC50: it is the concentration that gives 50% inhibition.

Active and inactive are the calls of the source.

One experiment deals with NIH3T3. The experiment can be described thus: mammalian cell viability counter-check – Alamar Blue, fluconazole, dry powder, cytotoxicity control for antifungal drug resistance project, dose response (AID 488809). The class given is functional, cell-based. To be noted: Mus musculus. (Resazurin is reduced to fluorescent resorufin, in cell work by metabolically active cells.)

Another experiment concerns Candida albicans. The experiment can be described thus: Candida growth effect without fluconazole – C. albicans CaCi-2, dry powder, counter-screen for antifungal drug resistance project, dose response (AID 488802). The class given is functional, organism-based. Background: The purpose of a counterscreen is to sort out artefacts and off-target activity.
The target in a further experiment is T1, Protein skinhead-1 (Caenorhabditis elegans, UniProt P34707).
T1 sequence (P34707 whole entry): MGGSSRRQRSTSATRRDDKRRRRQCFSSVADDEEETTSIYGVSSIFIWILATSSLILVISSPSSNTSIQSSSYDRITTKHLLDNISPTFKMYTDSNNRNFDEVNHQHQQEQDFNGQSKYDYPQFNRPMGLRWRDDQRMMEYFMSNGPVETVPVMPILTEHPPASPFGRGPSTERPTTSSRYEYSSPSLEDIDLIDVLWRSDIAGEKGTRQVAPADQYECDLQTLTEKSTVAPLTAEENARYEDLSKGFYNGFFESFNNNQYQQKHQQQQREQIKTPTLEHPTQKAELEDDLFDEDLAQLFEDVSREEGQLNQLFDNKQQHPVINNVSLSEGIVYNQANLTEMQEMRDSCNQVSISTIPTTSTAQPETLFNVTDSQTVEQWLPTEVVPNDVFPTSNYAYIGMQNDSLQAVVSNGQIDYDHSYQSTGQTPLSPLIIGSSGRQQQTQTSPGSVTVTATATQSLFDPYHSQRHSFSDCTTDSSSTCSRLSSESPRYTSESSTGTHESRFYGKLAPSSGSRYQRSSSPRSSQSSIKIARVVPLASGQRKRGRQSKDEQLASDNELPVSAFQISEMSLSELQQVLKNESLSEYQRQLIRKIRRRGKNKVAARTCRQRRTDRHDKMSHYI
The class given is functional.

In experiment [1] the target is T2, Sentrin-specific protease 8 (Homo sapiens, UniProt Q96LD8).
T2 sequence (Q96LD8 whole entry): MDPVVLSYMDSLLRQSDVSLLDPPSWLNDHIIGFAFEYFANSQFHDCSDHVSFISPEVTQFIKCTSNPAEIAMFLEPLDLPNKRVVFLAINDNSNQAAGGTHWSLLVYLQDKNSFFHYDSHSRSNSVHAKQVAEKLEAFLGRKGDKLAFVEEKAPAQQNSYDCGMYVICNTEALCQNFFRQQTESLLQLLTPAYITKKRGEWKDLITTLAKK
The experiment can be described thus: inhibition of sentrin protease 8 – biochemical, luminescence, set 2, SAR follow-up (AID 588601). It is filed as functional.

In experiment [2] the target is T3, Sentrin-specific protease 7 (Homo sapiens, UniProt Q9BQF6).
T3 sequence (Q9BQF6 whole entry): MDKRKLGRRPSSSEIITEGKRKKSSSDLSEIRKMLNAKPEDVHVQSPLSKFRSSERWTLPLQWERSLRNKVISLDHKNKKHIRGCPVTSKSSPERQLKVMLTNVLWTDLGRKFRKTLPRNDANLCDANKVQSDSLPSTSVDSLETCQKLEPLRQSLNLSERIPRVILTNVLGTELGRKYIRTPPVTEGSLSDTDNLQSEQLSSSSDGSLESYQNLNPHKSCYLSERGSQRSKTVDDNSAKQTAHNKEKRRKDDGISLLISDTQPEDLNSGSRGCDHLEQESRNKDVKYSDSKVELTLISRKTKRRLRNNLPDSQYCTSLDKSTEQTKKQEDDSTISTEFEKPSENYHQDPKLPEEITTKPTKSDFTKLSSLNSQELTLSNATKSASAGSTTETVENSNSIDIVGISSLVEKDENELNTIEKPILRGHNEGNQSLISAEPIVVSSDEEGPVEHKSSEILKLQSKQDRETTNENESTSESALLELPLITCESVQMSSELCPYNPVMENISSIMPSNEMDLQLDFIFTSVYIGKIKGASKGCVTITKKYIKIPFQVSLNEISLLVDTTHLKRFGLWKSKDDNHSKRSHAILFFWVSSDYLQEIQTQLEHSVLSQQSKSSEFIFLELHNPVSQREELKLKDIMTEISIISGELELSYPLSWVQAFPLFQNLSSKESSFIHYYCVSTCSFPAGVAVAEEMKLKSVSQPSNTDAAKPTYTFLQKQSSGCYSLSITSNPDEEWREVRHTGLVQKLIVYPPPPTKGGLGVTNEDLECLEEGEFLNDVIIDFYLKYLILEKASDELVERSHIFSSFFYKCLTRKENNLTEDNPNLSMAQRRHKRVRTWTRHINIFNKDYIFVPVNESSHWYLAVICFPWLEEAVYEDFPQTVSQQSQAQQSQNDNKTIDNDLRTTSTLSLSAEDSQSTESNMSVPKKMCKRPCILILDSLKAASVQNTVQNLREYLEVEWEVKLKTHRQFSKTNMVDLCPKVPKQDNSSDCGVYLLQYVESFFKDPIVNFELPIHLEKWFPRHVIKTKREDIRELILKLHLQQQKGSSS
Briefly: inhibition of human SENP7 cleavage activity – biochemical, luminescence, SAR follow-up (AID 504497). It is filed as functional.

The target in experiment [3] is T4, Sentrin-specific protease 6 (Homo sapiens, UniProt Q9GZR1).
T4 sequence (Q9GZR1 whole entry): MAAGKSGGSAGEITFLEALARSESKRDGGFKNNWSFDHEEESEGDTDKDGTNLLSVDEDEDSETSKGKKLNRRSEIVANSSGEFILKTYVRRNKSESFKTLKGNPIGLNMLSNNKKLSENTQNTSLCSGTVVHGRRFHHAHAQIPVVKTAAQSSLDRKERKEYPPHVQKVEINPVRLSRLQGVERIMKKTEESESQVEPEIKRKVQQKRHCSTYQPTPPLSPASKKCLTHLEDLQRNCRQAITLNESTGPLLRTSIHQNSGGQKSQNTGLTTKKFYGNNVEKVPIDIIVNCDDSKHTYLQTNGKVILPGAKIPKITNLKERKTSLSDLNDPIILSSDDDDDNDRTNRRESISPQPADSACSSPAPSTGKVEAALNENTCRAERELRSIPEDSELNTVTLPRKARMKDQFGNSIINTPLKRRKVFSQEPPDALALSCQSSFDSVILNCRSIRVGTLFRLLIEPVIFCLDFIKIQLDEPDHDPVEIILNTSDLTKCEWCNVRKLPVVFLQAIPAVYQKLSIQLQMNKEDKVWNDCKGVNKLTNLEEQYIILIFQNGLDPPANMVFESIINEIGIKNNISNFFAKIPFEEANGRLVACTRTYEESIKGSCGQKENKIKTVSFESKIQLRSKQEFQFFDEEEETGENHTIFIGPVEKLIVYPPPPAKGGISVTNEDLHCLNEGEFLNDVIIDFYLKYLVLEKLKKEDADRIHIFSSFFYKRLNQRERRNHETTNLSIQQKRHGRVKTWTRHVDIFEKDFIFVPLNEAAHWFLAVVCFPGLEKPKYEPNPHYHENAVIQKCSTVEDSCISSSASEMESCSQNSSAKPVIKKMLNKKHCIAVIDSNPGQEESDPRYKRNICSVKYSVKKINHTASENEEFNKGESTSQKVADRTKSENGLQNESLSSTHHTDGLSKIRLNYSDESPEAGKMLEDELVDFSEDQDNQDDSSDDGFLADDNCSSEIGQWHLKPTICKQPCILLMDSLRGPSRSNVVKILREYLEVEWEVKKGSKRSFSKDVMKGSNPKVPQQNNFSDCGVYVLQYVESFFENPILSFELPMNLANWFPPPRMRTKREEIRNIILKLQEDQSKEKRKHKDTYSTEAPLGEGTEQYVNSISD
Briefly: SAR Analysis of small molecule inhibitors of Sentrin-specific protease 6 (SENP6) using a Luminescent assay. [Related pubchem assays (depositor defined):AID2582, AID2599]. It is filed as functional.

The target in experiment [4] is T4, Sentrin-specific protease 6. Briefly: inhibition of human SENP6 catalytic domain – biochemical, luminescence, set 2, SAR follow-up (AID 588598). The class given is functional.
Experiment [5] deals with T3, Sentrin-specific protease 7. The experiment can be described thus: inhibition of human SENP7 cleavage activity – biochemical, luminescence, set 2, SAR follow-up (AID 588600). The class given is functional.
For experiment [6], the target named is T5, Caspase-3 (Homo sapiens, UniProt P42574).
T5 sequence (P42574 whole entry): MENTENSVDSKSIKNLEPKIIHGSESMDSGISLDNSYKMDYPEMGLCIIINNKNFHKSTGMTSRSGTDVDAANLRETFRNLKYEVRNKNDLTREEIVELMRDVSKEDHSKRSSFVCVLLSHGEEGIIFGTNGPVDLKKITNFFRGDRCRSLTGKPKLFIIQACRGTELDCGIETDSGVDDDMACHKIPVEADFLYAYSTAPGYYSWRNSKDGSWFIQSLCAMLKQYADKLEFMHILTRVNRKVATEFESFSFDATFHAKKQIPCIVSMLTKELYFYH
The experiment can be described thus: SAR Analysis of small molecule inhibitors of Sentrin-specific proteases (SENPs) using a Caspase-3 Selectivity assay. [Related pubchem assays (depositor defined):AID2540, AID2599, AID434973, AID489001]. It is filed as functional.

For experiment [7], the target named is T2, Sentrin-specific protease 8. Briefly: inhibition of human SENP8 cleavage activity – biochemical, luminescence, SAR follow-up (AID 504501). It is filed as functional.
Experiment [8] has as its target T5, Caspase-3. Briefly: inhibition of recombinant caspase-3 activity – biochemical, luminescence, set 2, selectivity assay for SENP protease inhibitor project, SAR follow-up (AID 588599). The class given is functional.
The next experiment addresses Cytochrome P450 2D6 (Homo sapiens, UniProt P10635).
A further experiment deals with CAAX prenyl protease 2 (Saccharomyces cerevisiae S288c, UniProt Q03530). Briefly: inhibition of Rce1p peptide cleavage – biochemical, plate reader, dry powder retest, dose response (AID 588851).
Experiment [9] is described as follows: Counterscreen for antagonists of the orexin 1 receptor (OX1R; HCRTR1): Fluorescence-based cell-based high throughput dose response assay to identify antagonists of the parental CHO cell line. [Related pubchem assays (depositor defined):AID434989, AID435008, AID463079, AID485270, AID492963, AID492964, AID492965, AID493232, AID504699, AID504701]. It is filed as functional.

Experiment [10] has as its target T6, Orexin receptor type 2 (Homo sapiens, UniProt O43614). The experiment can be described thus: Counterscreen assay for antagonists of the orexin 1 receptor (OX1R; HCRTR1): Homogeneous Time Resolved Fluorescence (HTRF)-based cell-based dose response assay for antagonists of the orexin 2 receptor (OX2R; HCRTR2), run by assay provider. It is filed as functional.

Experiment [11] addresses T6, Orexin receptor type 2. Briefly: Counterscreen assay for antagonists of the orexin 1 receptor (OX1R; HCRTR1): Fluorescence-based cell-based dose response assay for antagonists of the orexin 2 receptor (OX2R; HCRTR2), run by assay provider. The class given is functional.
The target in experiment [12] is T7, Orexin/Hypocretin receptor type 1 (Homo sapiens, UniProt O43613). The experiment can be described thus: Homogeneous Time Resolved Fluorescence (HTRF)-based cell-based high throughput dose response assay for antagonists of the orexin 1 receptor (OX1R; HCRTR1). [Related pubchem assays (depositor defined):AID434989, AID435008, AID463079, AID485270, AID492963, AID492964, AID492965, AID493232, AID504717, AID504718]. The class given is functional.

Experiment [13] addresses T7, Orexin/Hypocretin receptor type 1. The experiment can be described thus: Fluorescence-based cell-based high throughput dose response assay for antagonists of the orexin 1 receptor (OX1R; HCRTR1). [Related pubchem assays (depositor defined):AID434989, AID435008, AID463079, AID485270, AID492963, AID492964, AID492965, AID493232, AID504717, AID504718]. It is filed as functional.

For another experiment, the system named is CHO-K1. The experiment can be described thus: Counterscreen for antagonists of the orexin 1 receptor (OX1R; HCRTR1): Homogeneous time resolved fluorescence (HTRF)-based cell-based dose response assay to identify antagonists of the parental CHO-K1 cell line. [Related pubchem assays (depositor defined):AID434989, AID435008, AID463079, AID485270, AID492963, AID492964, AID492965, AID493232, AID504699, AID504701]. The class given is functional. The following applies: Cricetulus griseus.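 Further: potency for inhibition of ATP-stimulated IP1 production as antagonists.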

T6 sequence (O43614 whole entry): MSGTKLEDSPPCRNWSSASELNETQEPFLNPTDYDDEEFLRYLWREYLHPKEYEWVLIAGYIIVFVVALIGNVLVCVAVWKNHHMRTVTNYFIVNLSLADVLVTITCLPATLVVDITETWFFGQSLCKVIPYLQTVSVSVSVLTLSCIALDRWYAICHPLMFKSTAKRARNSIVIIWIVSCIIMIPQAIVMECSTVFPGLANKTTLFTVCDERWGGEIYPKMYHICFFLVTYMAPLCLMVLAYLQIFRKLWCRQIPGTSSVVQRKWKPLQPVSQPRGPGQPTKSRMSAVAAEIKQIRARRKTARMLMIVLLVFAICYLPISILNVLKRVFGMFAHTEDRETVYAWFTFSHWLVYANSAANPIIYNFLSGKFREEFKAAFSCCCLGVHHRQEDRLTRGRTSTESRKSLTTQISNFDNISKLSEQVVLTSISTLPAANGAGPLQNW
T7 sequence (O43613 whole entry): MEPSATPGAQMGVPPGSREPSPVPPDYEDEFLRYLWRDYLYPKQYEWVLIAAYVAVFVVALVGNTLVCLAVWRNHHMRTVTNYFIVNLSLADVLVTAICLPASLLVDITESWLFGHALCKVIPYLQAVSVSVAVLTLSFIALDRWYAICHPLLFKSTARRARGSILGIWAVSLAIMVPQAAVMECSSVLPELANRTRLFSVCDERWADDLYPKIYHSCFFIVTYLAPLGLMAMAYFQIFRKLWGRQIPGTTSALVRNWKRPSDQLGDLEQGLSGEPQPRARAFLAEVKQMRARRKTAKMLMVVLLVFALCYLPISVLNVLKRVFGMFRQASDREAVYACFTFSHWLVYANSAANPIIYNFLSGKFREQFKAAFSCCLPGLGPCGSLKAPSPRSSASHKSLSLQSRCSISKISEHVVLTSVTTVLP
Sequence of CAAX prenyl protease 2 (Q03530 whole entry): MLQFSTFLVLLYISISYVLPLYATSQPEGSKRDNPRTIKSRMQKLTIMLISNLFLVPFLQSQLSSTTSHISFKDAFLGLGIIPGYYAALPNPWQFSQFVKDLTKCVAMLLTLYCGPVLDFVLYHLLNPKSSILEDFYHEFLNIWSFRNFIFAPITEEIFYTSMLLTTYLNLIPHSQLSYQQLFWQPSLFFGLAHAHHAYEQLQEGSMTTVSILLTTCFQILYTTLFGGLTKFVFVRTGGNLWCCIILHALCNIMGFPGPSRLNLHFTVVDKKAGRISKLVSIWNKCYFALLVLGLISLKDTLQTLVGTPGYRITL
Sequence of Cytochrome P450 2D6 (P10635 whole entry): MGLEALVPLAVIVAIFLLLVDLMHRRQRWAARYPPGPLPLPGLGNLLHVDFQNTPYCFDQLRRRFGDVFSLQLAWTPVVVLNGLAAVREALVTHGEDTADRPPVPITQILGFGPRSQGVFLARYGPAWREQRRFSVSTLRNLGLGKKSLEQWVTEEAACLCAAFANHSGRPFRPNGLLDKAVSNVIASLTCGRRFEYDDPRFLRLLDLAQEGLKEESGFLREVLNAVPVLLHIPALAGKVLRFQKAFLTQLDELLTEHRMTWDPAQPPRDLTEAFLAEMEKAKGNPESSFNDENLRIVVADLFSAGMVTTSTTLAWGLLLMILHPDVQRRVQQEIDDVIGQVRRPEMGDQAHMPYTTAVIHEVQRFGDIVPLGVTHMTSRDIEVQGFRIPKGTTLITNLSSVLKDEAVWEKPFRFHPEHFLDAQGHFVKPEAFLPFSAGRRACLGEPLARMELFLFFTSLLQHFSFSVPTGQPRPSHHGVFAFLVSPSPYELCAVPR

For the compound `CC1CCN(C(=O)Cn2c3ccccc3c3nc4n(c(=O)c32)CCCS4)CC1`, the AC50 in the experiment with NIH3T3 was > 260 µM (inactive); with Candida albicans it was 122 µM (active).

As to `C(=C\c1nc(-c2cccnc2)no1)/c1ccccc1`, the IC50 was 49 µM (active) at Protein skinhead-1; 9.69 µM (active) in experiment [1]; 5.3 µM (active) in experiment [2]; 21 µM (active) in experiment [3]; 8.23 µM (active) in [4]; 8.26 µM (active) in [5]. Also, the half-inhibitory concentration (IC50) on Caspase-3 [6] is 6.2 µM (active); in [7], 23 µM (active); on Caspase-3 [8], 9.23 µM (active).

On to `Cc1ccc(NC(=O)CCc2ccc(S(=O)(=O)NC3CCCCC3)cc2)cc1`, for which the figures for the half-maximal activity concentration (AC50) at Cytochrome P450 2D6 and on CAAX prenyl protease 2 were 11.2 µM (inconclusive) and 11 µM (active), respectively.

Regarding `Cc1nn(C)c(C)c1/N=C/c1c(O)ccc2ccccc12`, the IC50 in [9] was > 49.8 µM (inactive); at Orexin receptor type 2 [10], > 50 µM (inactive); on Orexin receptor type 2 [11], > 88.8 µM (inactive); in experiment [12], 3.76 µM (active); in experiment [13] it was 31.2 µM (inactive); in the experiment with CHO-K1, > 66.2 µM (inactive).
